Among the data in the supplement of paper PMC10307832 are relative viability values, retold here.

Common to all, as to test: relative viability (nuclei count vs DMSO), 5 days (fraction); higher = more cells survive
Compound in assay [1]: C1COCCN1C2=NC(=NC3=C2OC4=C3C=CC=N4)C5=CC(=CC=C5)NC(=O)C6=CN=C(C=C6)N + CC1(C)CCC(c2ccc(Cl)cc2)=C(CN2CCN(c3ccc(C(=O)NS(=O)(=O)c4ccc(N[C@H](CCN5CCOCC5)CSc5ccccc5)c(S(=O)(=O)C(F)(F)F)c4)cc3)CC2)C1 [Navitoclax] (partner 0.5 µM)
The gist of the method:
(§1)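 Nuclei were stained with Hoechst during a one-step fixation (final 0.05% Triton X-100, 1% formaldehyde, 1 ug/ml Hoechst) carried out 5 days after dosing, then counted on 4× images. The cells, lung cancer lines in 1536-well plates, had been dosed by pin tool the day after seeding with one drug alone or a fixed anchor-drug dose plus five library-drug doses (not always all listed) in √10 steps. Relative viability is the nuclei count in treated wells divided by that in vehicle wells, and each value is the median of duplicate plates.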

Compound in assay [2]: C1COCCN1C2=NC(=NC3=C2OC4=C3C=CC=N4)C5=CC(=CC=C5)NC(=O)C6=CN=C(C=C6)N + CS(=O)(=O)CCNCc1ccc(-c2ccc3ncnc(Nc4ccc(OCc5cccc(F)c5)c(Cl)c4)c3c2)o1 [Lapatinib] (partner 2 µM)
Put shortly: as §1

Compound in the assay “SGI-1776 + Vorinostat”: CN1CCC(CNc2ccc3ncc(-c4cccc(OC(F)(F)F)c4)n3n2)CC1 [SGI-1776] + O=C(CCCCCCC(=O)Nc1ccccc1)NO [Vorinostat] (partner 1 µM)
The gist of the method: as §1

Compound in the assay “Entinostat + Dasatinib”: Nc1ccccc1NC(=O)c1ccc(CNC(=O)OCc2cccnc2)cc1 [Entinostat] + Cc1nc(Nc2ncc(C(=O)Nc3c(C)cccc3Cl)s2)cc(N2CCN(CCO)CC2)n1 [Dasatinib] (partner 0.075 µM)
Put shortly: as §1

For PC-14, the relative viability in assay [1] (first compound 0.02 µM) came to 1.09; in assay [1] (first compound 0.06325 µM), 1.06; in assay [1] (first compound 0.2 µM), 1.02; in assay [1] (first compound 0.6325 µM), 1.01; in assay [1] (first compound 2 µM) it was 0.465; in assay [2] (first compound 0.02 µM) it was 0.308. In addition, the relative viability in assay [2] (first compound 0.06325 µM) was 0.391; in assay [2] (first compound 0.2 µM), 0.307; in assay [2] (first compound 0.6325 µM), 0.283; in assay [2] (first compound 2 µM), 0.249; in the assay with SGI-1776 + Vorinostat (first compound 0.08 µM), 0.798; with SGI-1776 + Vorinostat (first compound 0.8 µM), 0.784. In addition, the relative viability was found to be 0.771 in the assay with SGI-1776 + Vorinostat (first compound 2.53 µM); 0.0624 with SGI-1776 + Vorinostat (first compound 8 µM); 0.236 in the assay with Entinostat + Dasatinib (first compound 0.02 µM); 0.261 with Entinostat + Dasatinib (first compound 0.06325 µM); 0.217 in the assay with Entinostat + Dasatinib (first compound 0.2 µM); 0.118 in the assay with Entinostat + Dasatinib (first compound 0.6325 µM). Also, the relative viability in the assay with Entinostat + Dasatinib (first compound 2 µM) came to 0.0579.

For RERF-LC-KJ, the relative viability in assay [1] (first compound 0.02 µM) worked out at 0.966; in assay [1] (first compound 0.06325 µM) it was 0.995; in assay [1] (first compound 0.2 µM), 0.759; in assay [1] (first compound 0.6325 µM) it was 1; in assay [1] (first compound 2 µM) it was 0.712; in assay [2] (first compound 0.02 µM), 0.976. For the same cell line, the relative viability in assay [2] (first compound 0.06325 µM) was 0.922; in assay [2] (first compound 0.2 µM), 0.844; in assay [2] (first compound 0.6325 µM), 0.769; in assay [2] (first compound 2 µM) it was 0.65; in the assay with SGI-1776 + Vorinostat (first compound 0.08 µM), 0.694; with SGI-1776 + Vorinostat (first compound 0.8 µM), 0.745. Further, the relative viability with SGI-1776 + Vorinostat (first compound 2.53 µM) came to 0.686; in the assay with SGI-1776 + Vorinostat (first compound 8 µM), 0.48; with Entinostat + Dasatinib (first compound 0.02 µM) it was 0.82; in the assay with Entinostat + Dasatinib (first compound 0.06325 µM) it was 0.656; with Entinostat + Dasatinib (first compound 0.2 µM) it was 0.731; with Entinostat + Dasatinib (first compound 0.6325 µM) it was 0.374. Also, in the assay with Entinostat + Dasatinib (first compound 2 µM), the relative viability was 0.237.

For the cell line SK-LU-1, the relative viability in assay [1] (first compound 0.02 µM) was determined as 0.982; in assay [1] (first compound 0.06325 µM), 0.724; in assay [1] (first compound 0.2 µM), 0.863; in assay [1] (first compound 0.6325 µM) it was 0.765; in assay [1] (first compound 2 µM), 0.447; in assay [2] (first compound 0.02 µM), 1.02. In addition, the relative viability in assay [2] (first compound 0.06325 µM) stood at 1.01; in assay [2] (first compound 0.2 µM) it was 0.786; in assay [2] (first compound 0.6325 µM), 0.824; in assay [2] (first compound 2 µM) it was 0.33; with SGI-1776 + Vorinostat (first compound 0.08 µM) it was 0.892; with SGI-1776 + Vorinostat (first compound 0.8 µM), 0.803. Further, the relative viability in the assay with SGI-1776 + Vorinostat (first compound 2.53 µM) turned out to be 0.697; in the assay with SGI-1776 + Vorinostat (first compound 8 µM), 0.648; with Entinostat + Dasatinib (first compound 0.02 µM), 0.186; in the assay with Entinostat + Dasatinib (first compound 0.06325 µM), 0.237; with Entinostat + Dasatinib (first compound 0.2 µM) it was 0.186; in the assay with Entinostat + Dasatinib (first compound 0.6325 µM) it was 0.199. The relative viability in the assay with Entinostat + Dasatinib (first compound 2 µM) stood at 0.147.

Take SK-MES-1: the relative viability was 1.42 in assay [1] (first compound 0.02 µM); 1.22 in assay [1] (first compound 0.06325 µM); 1.17 in assay [1] (first compound 0.2 µM); 0.931 in assay [1] (first compound 0.6325 µM); 0.787 in assay [1] (first compound 2 µM); 0.455 in assay [2] (first compound 0.02 µM). Moreover, the relative viability in assay [2] (first compound 0.06325 µM) came out at 0.492; in assay [2] (first compound 0.2 µM), 0.431; in assay [2] (first compound 0.6325 µM), 0.424; in assay [2] (first compound 2 µM), 0.312; with SGI-1776 + Vorinostat (first compound 0.08 µM), 1.23; in the assay with SGI-1776 + Vorinostat (first compound 0.8 µM), 1.04. The relative viability in the assay with SGI-1776 + Vorinostat (first compound 2.53 µM) worked out at 1.11; with SGI-1776 + Vorinostat (first compound 8 µM), 0.734; in the assay with Entinostat + Dasatinib (first compound 0.02 µM), 0.403; in the assay with Entinostat + Dasatinib (first compound 0.06325 µM), 0.498; in the assay with Entinostat + Dasatinib (first compound 0.2 µM), 0.541; in the assay with Entinostat + Dasatinib (first compound 0.6325 µM) it was 0.338. The relative viability with Entinostat + Dasatinib (first compound 2 µM) is 0.175.

On to SW 1573, for which the relative viability in assay [1] (first compound 0.02 µM) was 1.02; in assay [1] (first compound 0.06325 µM), 1.01; in assay [1] (first compound 0.2 µM), 0.856; in assay [1] (first compound 0.6325 µM), 0.912; in assay [1] (first compound 2 µM), 0.567; in assay [2] (first compound 0.02 µM), 1.2. Also, the relative viability in assay [2] (first compound 0.06325 µM) was found to be 1.13; in assay [2] (first compound 0.2 µM), 0.932; in assay [2] (first compound 0.6325 µM), 1.1; in assay [2] (first compound 2 µM) it was 0.896; in the assay with SGI-1776 + Vorinostat (first compound 0.08 µM) it was 1.12; in the assay with SGI-1776 + Vorinostat (first compound 0.8 µM), 0.461. Further, the relative viability with SGI-1776 + Vorinostat (first compound 2.53 µM) came to 0.607; with SGI-1776 + Vorinostat (first compound 8 µM), 0.312; with Entinostat + Dasatinib (first compound 0.02 µM), 0.532; in the assay with Entinostat + Dasatinib (first compound 0.06325 µM), 0.518; with Entinostat + Dasatinib (first compound 0.2 µM), 0.711; with Entinostat + Dasatinib (first compound 0.6325 µM) it was 0.627. The relative viability with Entinostat + Dasatinib (first compound 2 µM) stood at 0.454.
